Experimental data: patent publication US20100298141A1, “SUBSTITUTED PYRIDINE N-OXIDE HERBICIDES” (E. I. DU PONT DE NEMOURS AND COMPANY, priority 2007, published 2010)

How the values were obtained:
giant foxtail [1] = experiment: Test A pre-/postemergence greenhouse test; format: in vivo, Setaria faberi; settings: for Plant response rating, Foxtail, Giant: 0 to 100 scale where 0 is no effect and 100 is complete control; for Foxtail, Giant plant response rating: 0 to 100 scale
Outline: (§1)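 Pre: directed soil spray on seeded loam/sand. Post: foliar spray, plants 2–10 cm, 1–2 leaf stage, applied concurrently. Vehicle: non-phytotoxic solvent + surfactant. Greenhouse ~10 d; visual injury rating vs untreated controls.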

velvetleaf = experiment: Test A pre-/postemergence greenhouse test; format: in vivo, Abutilon theophrasti; settings: for Plant response rating, Velvetleaf: 0 to 100 scale where 0 is no effect and 100 is complete control; for Velvetleaf plant response rating: 0 to 100 scale
Outline: as §1

wheat = experiment: Test A pre-/postemergence greenhouse test; format: in vivo, Triticum aestivum; settings: for Plant response rating, Wheat: 0 to 100 scale where 0 is no effect and 100 is complete control; for Wheat plant response rating: 0 to 100 scale
Outline: as §1

corn = experiment: Test A pre-/postemergence greenhouse test; format: in vivo, Zea mays; settings: for Plant response rating, Corn: 0 to 100 scale where 0 is no effect and 100 is complete control; for Corn plant response rating: 0 to 100 scale
Outline: as §1

downy brome = experiment: Test C pre-/postemergence test; format: in vivo, Bromus tectorum
Description: (§2) Seeds of plant species selected from blackgrass (Alopecurus myosuroides), downy brome (Bromus tectorum), green foxtail (Setaria viridis), Italian ryegrass (Lolium multiflorum), wheat (Triticum aestivum), wild oat (Avena fatua), catchweed bedstraw (Galium aparine), Russian thistle (Salsola kali), […] (Cynodon dactylon), Surinam grass (Brachiaria decumbens), cocklebur (Xanthium strumarium), corn (Zea mays), crabgrass (Digitaria sanguinalis), woolly cupgrass (Eriochloa villosa), giant foxtail (Setaria faberii), Goosegrass (Eleusin indica), johnsongrass (Sorghum halepense), kochia (Kochia scoparia), lambsquarters (Chenopodium album), morningglory (Ipomoea coccinea), eastern black nightshade (Solanum ptycanthum), yellow nutsedge (Cyperus esculentus), pigweed (Amaranthus retroflexus), common ragweed (Ambrosia elation), soybean (Glycine max), common (oilseed) sunflower (Helianthus annuus), and velvetleaf (Abutilon theophrasti) were planted and treated preemergence with test chemicals formulated in a non-phytotoxic solvent mixture which included a surfactant. At the same time, plants selected from these crop and weed species and also winter barley (Hordeum vulgare), canarygrass (Phalaris minor), and chickweed (Stellaria media) were treated with postemergence applications of some of the test chemicals formulated in the same manner. Plants ranged in height from 2 to 18 cm (1- to 4-leaf stage) for postemergence treatments. […] At time of treatment, test pots were flooded to 3 cm above the soil surface, treated by application of test compounds directly to the paddy water, and then maintained at that water depth for the duration of the test. […] A dash (-) response means no test result.

bermudagrass = experiment: Test C pre-/postemergence test; format: in vivo, Cynodon dactylon; settings: for Plant response rating, Bermudagrass: 31 g ai/ha
Description: as §2

Surinam grass = experiment: Test C pre-/postemergence test; format: in vivo, Brachiaria decumbens; settings: for Plant response rating, Surinam Grass: 31 g ai/ha, scale 0 to 100 (0 no effect, 100 complete control)
Description: as §2

crabgrass = experiment: Test C pre-/postemergence test; format: in vivo, Digitaria sanguinalis; settings: for Plant response rating, Crabgrass, Large: 31 g ai/ha, scale 0 to 100 (0 no effect, 100 complete control)
Description: as §2

giant foxtail [2] = experiment: Test C pre-/postemergence test; format: in vivo, Setaria faberii; settings: for Plant response rating, Foxtail, Giant: 31 g ai/ha, scale 0 to 100 (0 no effect, 100 complete control)
Description: as §2

johnsongrass = experiment: Test C pre-/postemergence test; format: in vivo, Sorghum halepense; settings: for Plant response rating, Johnsongrass: 31 g ai/ha, scale 0 to 100 (0 no effect, 100 complete control)
Description: as §2

morningglory = experiment: Test C pre-/postemergence test; format: in vivo, Ipomoea coccinea; settings: for Plant response rating, Morningglory: 31 g ai/ha, scale 0 to 100 (0 no effect, 100 complete control)
Description: as §2

pigweed = experiment: Test C pre-/postemergence test; format: in vivo, Amaranthus retroflexus; settings: for Plant response rating, Pigweed: 31 g ai/ha, scale 0 to 100 (0 no effect, 100 complete control)
Description: as §2

soybean = experiment: Test C pre-/postemergence test; format: in vivo, Glycine max; settings: for Plant response rating, Soybean: 31 g ai/ha, scale 0 to 100 (0 no effect, 100 complete control)
Description: as §2

rice = experiment: Test C flooded paddy test; format: in vivo, Oryza sativa; settings: Flood
Outline: (§3)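 Pots were flooded to 3 cm above the soil surface at treatment, compound applied directly to the paddy water, and that depth held throughout. Plants were kept in a greenhouse for 13 to 15 days, then visually rated against untreated controls.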

barnyardgrass = experiment: Test C flooded paddy test; format: in vivo, Echinochloa crus-galli; settings: Flood
Outline: as §3

lambsquarters = experiment: Test C pre-/postemergence test; format: in vivo, Chenopodium album
Description: as §2

[3] = Postemergence, 500 g ai/ha, 0 is no effect, 100 is complete control
[4] = Preemergence, 125 g ai/ha, 0 no effect, 100 complete control
[5] = 62 g ai/ha, Preemergence, scale 0 to 100
[6] = 125 g ai/ha, preemergence, scale 0 (no effect) to 100 (complete control)
[7] = Preemergence, 31 g ai/ha, scale 0 to 100 (0 no effect, 100 complete control)
[8] = preemergence, 250 g ai/ha, scale 0 (no effect) to 100 (complete control)
[9] = 62 g ai/ha, Preemergence, scale 0 to 100 (0 no effect, 100 complete control)
[10] = Preemergence, scale 0 to 100 (0 no effect, 100 complete control)
[11] = 62 g ai/ha, scale 0 to 100 (0 no effect, 100 complete control)
[12] = 250 g ai/ha, scale 0 to 100, 0 no effect, 100 complete control, 13 to 15 days
[13] = Postemergence, 125 g ai/ha, 0 is no effect, 100 is complete control
[14] = 31 g ai/ha, scale 0 to 100 (0 no effect, 100 complete control)
[15] = 62 g ai/ha, scale 0 to 100, 0 no effect, 100 complete control, 13 to 15 days
[16] = 125 g ai/ha, scale 0 to 100, 0 no effect, 100 complete control, 13 to 15 days

CCn1nc(C(F)(F)F)c(CS(=O)(=O)c2cccc[n+]2[O-])c1OCC(F)(F)F [Compound 63]
5: Soybean plant response rating (soybean; [5])
80: Plant response rating, Foxtail, Giant (giant foxtail [1]; Postemergence, 125 g ai/ha) | Velvetleaf plant response rating (velvetleaf; [3]) | Plant response rating, Wheat (wheat; Preemergence, 500 g ai/ha)
40: Plant response rating, Bromegrass, Downy (downy brome; [7]) | Plant response rating, Barnyardgrass (barnyardgrass; [11]) | Plant response rating, Barnyardgrass (barnyardgrass; [12])
20: Wheat plant response rating (wheat; [4])
35: Plant response rating, Rice (rice; [12])
30: Plant response rating, Corn (corn; Postemergence, 125 g ai/ha) | Plant response rating, Rice (rice; [11])
70: Bromegrass, Downy plant response rating (downy brome; [5])
90: Foxtail, Giant plant response rating (giant foxtail [1]; [3])
85: Johnsongrass plant response rating (johnsongrass; [5]) | Plant response rating, Johnsongrass (johnsongrass; Preemergence)
0: Corn plant response rating (corn; [4]) | Morningglory plant response rating (morningglory; [5]) | Morningglory plant response rating (morningglory; [6]) | Plant response rating, Morningglory (morningglory; Preemergence) | Morningglory plant response rating (morningglory; [8]) | Plant response rating, Soybean (soybean; Preemergence)
98: Bromegrass, Downy plant response rating (downy brome; [6]) | Johnsongrass plant response rating (johnsongrass; [8])
50: Plant response rating, Wheat (wheat; Postemergence, 125 g ai/ha) | Plant response rating, Corn (corn; Preemergence, 500 g ai/ha) | Plant response rating, Pigweed (pigweed; Preemergence) | Soybean plant response rating (soybean; [8])
60: Plant response rating, Velvetleaf (velvetleaf; Postemergence, 125 g ai/ha) | Velvetleaf plant response rating (velvetleaf; [4]) | Wheat plant response rating (wheat; [3]) | Corn plant response rating (corn; [3])
100: Foxtail, Giant plant response rating (giant foxtail [1]; [4]) | Plant response rating, Foxtail, Giant (giant foxtail [1]; Preemergence, 500 g ai/ha) | Plant response rating, Velvetleaf (velvetleaf; Preemergence, 500 g ai/ha) | Bromegrass, Downy plant response rating (downy brome; [8]) | Bermudagrass plant response rating (bermudagrass; [9]) | Bermudagrass plant response rating (bermudagrass; [6]) | Plant response rating, Bermudagrass (bermudagrass; [10]) | Bermudagrass plant response rating (bermudagrass; [8]) | Surinam Grass plant response rating (Surinam grass; [5]) | Surinam Grass plant response rating (Surinam grass; [6]) | Plant response rating, Surinam Grass (Surinam grass; Preemergence) | Surinam Grass plant response rating (Surinam grass; [8]) | Crabgrass, Large plant response rating (crabgrass; [5]) | Crabgrass, Large plant response rating (crabgrass; [6]) | Plant response rating, Crabgrass, Large (crabgrass; Preemergence) | Crabgrass, Large plant response rating (crabgrass; [8]) | Foxtail, Giant plant response rating (giant foxtail [2]; [5]) | Foxtail, Giant plant response rating (giant foxtail [2]; [6]) | Plant response rating, Foxtail, Giant (giant foxtail [2]; Preemergence) | Foxtail, Giant plant response rating (giant foxtail [2]; [8]) | Pigweed plant response rating (pigweed; [5]) | Pigweed plant response rating (pigweed; [6]) | Pigweed plant response rating (pigweed; [8])

Cn1nc(C(F)(F)F)c(C[S+]([O-])c2cc(Cl)cc[n+]2[O-])c1Cl (racemic) [Compound 39]
70: Velvetleaf plant response rating (velvetleaf; [4]) | Plant response rating, Wheat (wheat; Preemergence, 500 g ai/ha)
60: Velvetleaf plant response rating (velvetleaf; [3]) | Wheat plant response rating (wheat; [13]) | Wheat plant response rating (wheat; [3]) | Plant response rating, Surinam Grass (Surinam grass; Preemergence)
50: Wheat plant response rating (wheat; [4]) | Corn plant response rating (corn; [3]) | Plant response rating, Corn (corn; Preemergence, 500 g ai/ha)
40: Velvetleaf plant response rating (velvetleaf; [13]) | Plant response rating, Rice (rice; [16])
65: Plant response rating, Rice (rice; [12]) | Plant response rating, Barnyardgrass (barnyardgrass; [12])
0: Soybean plant response rating (soybean; [5]) | Plant response rating, Soybean (soybean; Preemergence) | Plant response rating, Rice (rice; [14]) | Plant response rating, Barnyardgrass (barnyardgrass; [14]) | Plant response rating, Barnyardgrass (barnyardgrass; [15])
90: Foxtail, Giant plant response rating (giant foxtail [1]; [3]) | Surinam Grass plant response rating (Surinam grass; [6]) | Surinam Grass plant response rating (Surinam grass; [8]) | Crabgrass, Large plant response rating (crabgrass; [5]) | Foxtail, Giant plant response rating (giant foxtail [2]; [5]) | Foxtail, Giant plant response rating (giant foxtail [2]; [8])
85: Plant response rating, Bermudagrass (bermudagrass; [10]) | Johnsongrass plant response rating (johnsongrass; [6]) | Johnsongrass plant response rating (johnsongrass; [8])
30: Corn plant response rating (corn; [13]) | Corn plant response rating (corn; [4]) | Plant response rating, Johnsongrass (johnsongrass; Preemergence) | Plant response rating, Morningglory (morningglory; Preemergence) | Plant response rating, Barnyardgrass (barnyardgrass; [16])
80: Foxtail, Giant plant response rating (giant foxtail [1]; [13]) | Surinam Grass plant response rating (Surinam grass; [5]) | Plant response rating, Crabgrass, Large (crabgrass; Preemergence) | Johnsongrass plant response rating (johnsongrass; [5]) | Lambsquarters plant response rating (lambsquarters; [5]) | Morningglory plant response rating (morningglory; [5])
75: Plant response rating, Lambsquarters (lambsquarters; [7])
10: Soybean plant response rating (soybean; [6]) | Soybean plant response rating (soybean; [8]) | Plant response rating, Rice (rice; [15])
100: Foxtail, Giant plant response rating (giant foxtail [1]; [4]) | Plant response rating, Foxtail, Giant (giant foxtail [1]; Preemergence, 500 g ai/ha) | Plant response rating, Velvetleaf (velvetleaf; Preemergence, 500 g ai/ha) | Bermudagrass plant response rating (bermudagrass; [9]) | Bermudagrass plant response rating (bermudagrass; [6]) | Bermudagrass plant response rating (bermudagrass; [8]) | Crabgrass, Large plant response rating (crabgrass; [6]) | Crabgrass, Large plant response rating (crabgrass; [8]) | Lambsquarters plant response rating (lambsquarters; [6]) | Lambsquarters plant response rating (lambsquarters; [8]) | Morningglory plant response rating (morningglory; [6]) | Morningglory plant response rating (morningglory; [8]) | Pigweed plant response rating (pigweed; [5]) | Pigweed plant response rating (pigweed; [6]) | Plant response rating, Pigweed (pigweed; Preemergence) | Pigweed plant response rating (pigweed; [8])
20: Plant response rating, Foxtail, Giant (giant foxtail [2]; Preemergence)
